Laboratory results reported in ChEMBL document CHEMBL1138072, “Critical modifications of the ISO-1 scaffold improve its potent inhibition of macrophage migration inhibitory factor (MIF) tautomerase activity” (Bioorg Med Chem Lett, 2006).

What follows are molecules tested against T1, Macrophage migration inhibitory factor (Homo sapiens, UniProt P14174) (assay: Inhibition of MIF tautomerase activity).
T1 sequence (P14174 whole entry): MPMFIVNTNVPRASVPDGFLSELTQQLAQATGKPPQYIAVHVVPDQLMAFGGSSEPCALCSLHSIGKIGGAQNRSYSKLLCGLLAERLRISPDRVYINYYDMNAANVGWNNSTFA

| SMILES | IC50 [µM] |
| --- | --- |
| O=C(CC1CC(c2ccc(O)cc2)=NO1)NC1CCCCC1 (stereo unspecified) | 24 |
| Cc1cc(C)c(OC(=O)CC2CC(c3ccc(O)cc3)=NO2)c(C)c1 (stereo unspecified) | 20 |
| COc1ccc(OC(=O)CC2CC(c3ccc(O)cc3)=NO2)cc1 (stereo unspecified) | 8.5 |
| CC(C)(C)OC(=O)NCCCCNC(=O)CC1CC(c2ccc(O)cc2)=NO1 (stereo unspecified) | 8.5 |
| CC(C)(C)c1ccc(OC(=O)CC2CC(c3ccc(O)cc3)=NO2)cc1 (stereo unspecified) | 10 |
| O=C(CC1CC(c2ccc(O)cc2)=NO1)Oc1ccccc1 (stereo unspecified) | 10 |
| COc1ccc(NC(=O)CC2CC(c3ccc(O)cc3)=NO2)cc1 (stereo unspecified) | 26 |
| NCCCCNC(=O)CC1CC(c2ccc(O)cc2)=NO1 (stereo unspecified) | > 100 |
| CCOC(=O)CC1CC(c2ccc(O)cc2)=NO1 (stereo unspecified) | 12 |

These reach a lower IC50. Values come first.

| IC50 [µM] | SMILES |
| --- | --- |
| 6.5 | COC(=O)CC1CC(c2ccc(O)c(F)c2)=NO1 (stereo unspecified) |
| 6 | CC(C)OC(=O)CC1CC(c2ccc(O)cc2)=NO1 (stereo unspecified) |
| 5 | O=C(CC1CC(c2ccc(O)cc2)=NO1)OCC1CCCCC1 (stereo unspecified) |
| 4 | CCCOC(=O)CC1CC(c2ccc(O)cc2)=NO1 (stereo unspecified) |
| 3 | CCCCOC(=O)CC1CC(c2ccc(O)cc2)=NO1 (stereo unspecified) |
| 2.5 | O=C(CC1CC(c2ccc(O)cc2)=NO1)OC1CCCCC1 (stereo unspecified) |
| 1.5 | CC(C)(C)COC(=O)CC1CC(c2ccc(O)cc2)=NO1 (stereo unspecified) |
